Source: patent US20040249122A1, “Cationic, amphipathic beta-sheet peptides and uses thereof” (priority 2003, published 2004)
Where a SMILES comes first, the peptide text is derived from it.

Experiments:
[1] = test system: human erythrocytes; experiment: Hemolysis of human erythrocytes; assay type: cell-based; details: red cells of human, 500
Procedure: Antimicrobial and Hemolytic Assays. Antimicrobial susceptibility testing against Staphylococcus aureus (ATCC 29213), Escherichia coli (ATCC 25922), and Pseudomonas aeruginosa (ATCC 27853) was performed using a modification of the National Committee for Clinical Laboratory Standards microdilution broth assay (22). Mueller-Hinton broth (BBL) was used for diluting the peptide stock solution and for diluting the bacterial inoculum. The inoculum was prepared from mid-logarithmic phase cultures. […] The final concentration of peptide solution ranged-from 0.25 to 256 μg/mL in two-fold dilutions. The final concentration of bacteria in the wells was 5×10^5 CFU/mL. Peptides were tested in duplicate. In addition to the test peptide, three standard peptides and a non-treated growth control were included to validate the assay. The microtiter plates were incubated overnight at 37° C. and the absorbance was measured at 600 nm. […] After incubation at 37° C. for 30 min, the suspension was centrifuged at 10,000×g for 10 min and the absorbance at 400 nm was measured.

[2] = Peptide-induced leakage from calcein-loaded LUV
[3] = test system: Pseudomonas aeruginosa (ATCC 27853); assay type: cell-based; details: ATCC 27853
[4] = test system: Staphylococcus aureus (ATCC 29213); assay type: cell-based; details: ATCC 29213
[5] = test system: Escherichia coli (ATCC 25922); assay type: cell-based; details: ATCC 25922
[6] = test system: Candida albicans (ATCC 14053); details: ATCC 14053
Procedure: Antimicrobial and Hemolytic Assays. Antimicrobial susceptibility testing against Staphylococcus aureus (ATCC 29213), Escherichia coli (ATCC 25922), and Pseudomonas aeruginosa (ATCC 27853) was performed using a modification of the National Committee for Clinical Laboratory Standards microdilution broth assay (22). Mueller-Hinton broth (BBL) was used for diluting the peptide stock solution and for diluting the bacterial inoculum. The inoculum was prepared from mid-logarithmic phase cultures. Microtiter plate wells received aliquots-of 100 μL each of the inoculum and peptide dilution. The final concentration of peptide solution ranged-from 0.25 to 256 μg/mL in two-fold dilutions. The final concentration of bacteria in the wells was 5×10^5 CFU/mL. Peptides were tested in duplicate. In addition to the test peptide, three standard peptides and a non-treated growth control were included to validate the assay. The microtiter plates were incubated overnight at 37° C. and the absorbance was measured at 600 nm. […] After incubation at 37° C. for 30 min, the suspension was centrifuged at 10,000×g for 10 min and the absorbance at 400 nm was measured. Complete hemolysis was determined by adding 0.2% Triton X-100 in place of the peptide.
Antimicrobial susceptibility testing against Escherichia coli (ATCC 25922), Staphylococcus aureus (ATCC 29213), Pseudomonas aeruginosa (ATCC 27853), and Candida albicans (ATCC 14053) is performed using a modification of the National Committee for Clinical Laboratory Standards microdilution broth assay. Mueller-Hinton broth (BBL) is used for diluting the peptide stock solution and for diluting the bacterial inoculum. The inoculum is prepared from midlogarithmic phase cultures at an approximate concentration of 10^6 CFU/mL. Microtiter plate wells receive aliquots of 0.1 mL each of the inoculum and peptide dilution. The final concentration of the peptide solution ranges from 0.25 to 256 μg/mL in 2-fold dilutions. The microtiter plates are incubated overnight at 37° C.

[7] = test system: microorganisms; details: literature (52, 54); E. coli, S. aureus, P. aeruginosa for FKVKFKVKVK; cited from earlier work

With CC[C@H](C)[C@H](NC(=O)[C@H](C)NC(=O)CNC(=O)[C@H](C)NC(=O)[C@H](CCCCN)NC(=O)[C@H](CO)NC(=O)[C@H](C)NC(=O)[C@H](CCSC)NC(=O)CN)C(=O)N[C@@H](C)C(=O)NCC(=O)N[C@@H](CCCCN)C(=O)N[C@H](C(=O)N[C@@H](C)C(=O)N[C@@H](CCCCN)C(=O)N[C@H](C(=O)N[C@@H](C)C(=O)N[C@@H](CC(C)C)C(=O)N[C@@H](CCCCN)C(=O)N[C@@H](C)C(=O)N[C@@H](CC(C)C)C(N)=O)C(C)C)[C@@H](C)CC [PGLa, GMASKAGAIAGKIAKVALKAL -NH2, reference compound] (H-GMASKAGAIAGKIAKVALKAL-NH2; N-terminus assumed) the “% Hemolysis (500 μg/mL)” value [1] was 1%, the “calcein leakage from LUV (in words)” value ([2]; 4:1 POPE/POPG LUV) was “quite low” and the “calcein leakage from LUV (in words)” value ([2]; POPC (PC) LUV) was “not very effective”. For the same compound, the “calcein leakage from LUV (in words)” value ([2]; POPC/POPG LUV, all ratios (1:1 to 4:1)) was “most potent”, the “calcein release from LUV (in words)” value ([2]; POPG LUV) was “most potent” and the “Minimum Inhibitory Concentration, P. aeruginosa” value [3] was 128 µg/mL. The “Minimum Inhibitory Concentration, S. aureus” value [4] was 64 µg/mL, the “Minimum Inhibitory Concentration, E. coli” value [5] was 32 µg/mL and the “Minimum Inhibitory Concentration, C. albicans” value [6] was 128 µg/mL.

For FKVKFKVKVK (artificial mutant), the “antimicrobial or hemolytic activity as reported in the literature” value [7] is listed as “able to inhibit the growth”.
